From patent US10259779B2 (WAYNE STATE UNIVERSITY, priority 2016, dated 2019)

Tests used:
[1] = target: T1, recombinant HDAC8 (Homo sapiens, UniProt Q9BY41); test: Recombinant HDAC8 inhibition (HDAC-Glo); format: biochemical; conditions: for activity at 0.1 µM: 1.0 × 10^−7 M; for activity at 0.2 µM: 2.0 × 10^−7 M; for activity at […]: 2.5 × 10^−8 M; for activity at 0.05 µM: 5.0 × 10^−8 M; for HDAC8 fold selectivity HDAC1: HDAC8 over HDAC1; for HDAC8 fold selectivity HDAC1 / HDAC8 fold selectivity HDAC2 / HDAC8 fold selectivity HDAC3: calculated from IC50 values; for HDAC8 fold selectivity HDAC2: HDAC8 over HDAC2; for HDAC8 fold selectivity HDAC3: HDAC8 over HDAC3; for activity at 0.0125 µM: 1.25 × 10^−8 M; for fold selectivity for HDAC8 over HDAC1, 2, and 3: HDAC8 versus HDAC1, 2, 3
T1 construct: purchased BPS Bioscience
T1 sequence (Q9BY41 1-377): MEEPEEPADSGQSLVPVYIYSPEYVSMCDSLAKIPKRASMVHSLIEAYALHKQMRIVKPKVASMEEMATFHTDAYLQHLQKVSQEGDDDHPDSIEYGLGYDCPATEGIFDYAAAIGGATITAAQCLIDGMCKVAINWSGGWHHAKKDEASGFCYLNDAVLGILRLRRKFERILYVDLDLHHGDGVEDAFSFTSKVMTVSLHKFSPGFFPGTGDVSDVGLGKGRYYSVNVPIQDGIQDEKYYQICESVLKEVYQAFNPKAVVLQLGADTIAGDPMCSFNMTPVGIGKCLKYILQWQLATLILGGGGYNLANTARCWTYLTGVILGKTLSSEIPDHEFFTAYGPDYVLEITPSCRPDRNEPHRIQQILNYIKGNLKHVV
Protocol: Inhibitory activity with HDAC8 was measured using the following procedure. In a half area 96-well white opaque plate, recombinant HDAC8 (75 ng, BPS Bioscience) was incubated in HDAC-Glo™ buffer (39 μL) with inhibitor in DMSO (1 μL), or DMSO alone (1 μL) as a control, for 15 minutes at room temperature. HDAC-Glo™ reagent (10 μL) was added to each reaction and incubated for 30 min at room temperature. Luminescent signal was measured 30 minutes after adding the substrate reagent using a Geniosplus Fluorimeter (Tecan) at optimal gain. To determine IC50, the luminescent signal was first background corrected with the signal from a background control reaction where no HDAC8 enzyme was added.

[2] = target: HDAC1 (Homo sapiens, UniProt Q13547); test: ELISA-based HDAC activity assay, HDAC1
[3] = target: HDAC2 (Homo sapiens, UniProt Q92769); test: ELISA-based HDAC activity assay, HDAC2
[4] = target: HDAC3 (Homo sapiens, UniProt O15379); test: ELISA-based HDAC activity assay, HDAC3
[5] = target: T2, HDAC6 (Homo sapiens, UniProt Q9UBN7); test: ELISA-based HDAC activity assay, HDAC6; conditions: for HDAC6 fold selectivity HDAC1: HDAC6 over HDAC1; for HDAC6 fold selectivity HDAC1 / HDAC6 fold selectivity HDAC2 / HDAC6 fold selectivity HDAC3: calculated from IC50 values; for HDAC6 fold selectivity HDAC2: HDAC6 over HDAC2; for HDAC6 fold selectivity HDAC3: HDAC6 over HDAC3
T2 sequence (Q9UBN7 1-1215): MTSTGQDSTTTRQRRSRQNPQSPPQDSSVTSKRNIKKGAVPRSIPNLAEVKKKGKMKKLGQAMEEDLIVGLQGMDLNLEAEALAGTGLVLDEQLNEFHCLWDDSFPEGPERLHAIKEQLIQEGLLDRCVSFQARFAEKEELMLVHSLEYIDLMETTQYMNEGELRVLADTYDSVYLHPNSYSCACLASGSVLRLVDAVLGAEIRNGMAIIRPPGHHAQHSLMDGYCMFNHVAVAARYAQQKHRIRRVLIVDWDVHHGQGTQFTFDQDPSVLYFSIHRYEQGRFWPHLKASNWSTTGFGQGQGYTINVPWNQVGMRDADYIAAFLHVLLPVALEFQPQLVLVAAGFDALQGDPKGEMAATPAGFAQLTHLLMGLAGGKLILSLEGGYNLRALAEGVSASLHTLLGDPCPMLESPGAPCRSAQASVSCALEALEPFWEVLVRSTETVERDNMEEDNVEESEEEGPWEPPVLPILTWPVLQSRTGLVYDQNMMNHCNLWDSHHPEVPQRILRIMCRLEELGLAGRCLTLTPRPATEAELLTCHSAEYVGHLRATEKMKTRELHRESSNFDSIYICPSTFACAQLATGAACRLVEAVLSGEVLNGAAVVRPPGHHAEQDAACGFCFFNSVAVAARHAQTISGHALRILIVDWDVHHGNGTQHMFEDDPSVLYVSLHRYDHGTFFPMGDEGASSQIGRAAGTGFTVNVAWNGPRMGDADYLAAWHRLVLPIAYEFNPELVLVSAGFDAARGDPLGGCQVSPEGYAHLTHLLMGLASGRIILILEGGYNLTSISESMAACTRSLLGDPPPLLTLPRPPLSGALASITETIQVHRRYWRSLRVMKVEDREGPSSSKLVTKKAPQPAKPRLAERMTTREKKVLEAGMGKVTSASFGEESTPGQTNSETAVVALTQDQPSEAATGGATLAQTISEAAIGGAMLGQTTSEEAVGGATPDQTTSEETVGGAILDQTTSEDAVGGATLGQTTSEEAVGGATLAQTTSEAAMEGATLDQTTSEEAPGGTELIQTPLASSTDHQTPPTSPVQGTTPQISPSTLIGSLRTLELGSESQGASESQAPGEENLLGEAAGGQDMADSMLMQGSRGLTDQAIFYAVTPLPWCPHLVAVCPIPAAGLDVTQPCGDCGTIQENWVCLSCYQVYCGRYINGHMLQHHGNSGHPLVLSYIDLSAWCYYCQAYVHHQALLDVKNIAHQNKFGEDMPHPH

[6] = read-out: Deacetylase activity (%) HDAC8
[7] = potency (IC50) to HDAC1, 2, and 3, range over HDAC1, 2, and 3
[8] = read-out: Deacetylase activity (%) HDAC1
[9] = read-out: Deacetylase activity (%) HDAC2
[10] = read-out: Deacetylase activity (%) HDAC3
[11] = read-out: Deacetylase activity (%) HDAC6

HDAC2, sequence (Q92769 whole entry): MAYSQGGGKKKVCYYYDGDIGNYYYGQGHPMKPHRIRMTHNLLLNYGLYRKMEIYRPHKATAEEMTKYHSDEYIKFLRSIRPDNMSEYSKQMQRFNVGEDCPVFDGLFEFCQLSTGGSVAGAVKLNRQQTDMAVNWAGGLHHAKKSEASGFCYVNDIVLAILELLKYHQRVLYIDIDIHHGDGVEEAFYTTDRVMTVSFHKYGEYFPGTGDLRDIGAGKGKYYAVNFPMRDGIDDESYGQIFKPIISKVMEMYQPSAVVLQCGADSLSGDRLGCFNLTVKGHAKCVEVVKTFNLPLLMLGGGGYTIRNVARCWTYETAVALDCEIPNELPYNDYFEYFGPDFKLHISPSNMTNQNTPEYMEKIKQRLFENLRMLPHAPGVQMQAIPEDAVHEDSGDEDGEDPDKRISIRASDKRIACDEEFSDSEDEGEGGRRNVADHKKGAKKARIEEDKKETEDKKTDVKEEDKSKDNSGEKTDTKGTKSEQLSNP
HDAC3, sequence (O15379 whole entry): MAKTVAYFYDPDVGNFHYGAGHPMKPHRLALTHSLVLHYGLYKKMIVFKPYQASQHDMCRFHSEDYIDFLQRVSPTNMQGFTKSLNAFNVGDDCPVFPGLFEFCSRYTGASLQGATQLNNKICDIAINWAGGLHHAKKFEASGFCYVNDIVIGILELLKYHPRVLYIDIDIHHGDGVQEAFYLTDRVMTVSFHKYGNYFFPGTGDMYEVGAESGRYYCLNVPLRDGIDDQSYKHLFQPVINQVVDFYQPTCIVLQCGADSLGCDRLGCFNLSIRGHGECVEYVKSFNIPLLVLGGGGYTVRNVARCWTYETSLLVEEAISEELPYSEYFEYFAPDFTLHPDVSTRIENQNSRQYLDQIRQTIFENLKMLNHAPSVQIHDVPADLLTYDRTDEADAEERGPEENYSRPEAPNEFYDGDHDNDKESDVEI
HDAC3, sequence (Q9Y618 whole entry partner): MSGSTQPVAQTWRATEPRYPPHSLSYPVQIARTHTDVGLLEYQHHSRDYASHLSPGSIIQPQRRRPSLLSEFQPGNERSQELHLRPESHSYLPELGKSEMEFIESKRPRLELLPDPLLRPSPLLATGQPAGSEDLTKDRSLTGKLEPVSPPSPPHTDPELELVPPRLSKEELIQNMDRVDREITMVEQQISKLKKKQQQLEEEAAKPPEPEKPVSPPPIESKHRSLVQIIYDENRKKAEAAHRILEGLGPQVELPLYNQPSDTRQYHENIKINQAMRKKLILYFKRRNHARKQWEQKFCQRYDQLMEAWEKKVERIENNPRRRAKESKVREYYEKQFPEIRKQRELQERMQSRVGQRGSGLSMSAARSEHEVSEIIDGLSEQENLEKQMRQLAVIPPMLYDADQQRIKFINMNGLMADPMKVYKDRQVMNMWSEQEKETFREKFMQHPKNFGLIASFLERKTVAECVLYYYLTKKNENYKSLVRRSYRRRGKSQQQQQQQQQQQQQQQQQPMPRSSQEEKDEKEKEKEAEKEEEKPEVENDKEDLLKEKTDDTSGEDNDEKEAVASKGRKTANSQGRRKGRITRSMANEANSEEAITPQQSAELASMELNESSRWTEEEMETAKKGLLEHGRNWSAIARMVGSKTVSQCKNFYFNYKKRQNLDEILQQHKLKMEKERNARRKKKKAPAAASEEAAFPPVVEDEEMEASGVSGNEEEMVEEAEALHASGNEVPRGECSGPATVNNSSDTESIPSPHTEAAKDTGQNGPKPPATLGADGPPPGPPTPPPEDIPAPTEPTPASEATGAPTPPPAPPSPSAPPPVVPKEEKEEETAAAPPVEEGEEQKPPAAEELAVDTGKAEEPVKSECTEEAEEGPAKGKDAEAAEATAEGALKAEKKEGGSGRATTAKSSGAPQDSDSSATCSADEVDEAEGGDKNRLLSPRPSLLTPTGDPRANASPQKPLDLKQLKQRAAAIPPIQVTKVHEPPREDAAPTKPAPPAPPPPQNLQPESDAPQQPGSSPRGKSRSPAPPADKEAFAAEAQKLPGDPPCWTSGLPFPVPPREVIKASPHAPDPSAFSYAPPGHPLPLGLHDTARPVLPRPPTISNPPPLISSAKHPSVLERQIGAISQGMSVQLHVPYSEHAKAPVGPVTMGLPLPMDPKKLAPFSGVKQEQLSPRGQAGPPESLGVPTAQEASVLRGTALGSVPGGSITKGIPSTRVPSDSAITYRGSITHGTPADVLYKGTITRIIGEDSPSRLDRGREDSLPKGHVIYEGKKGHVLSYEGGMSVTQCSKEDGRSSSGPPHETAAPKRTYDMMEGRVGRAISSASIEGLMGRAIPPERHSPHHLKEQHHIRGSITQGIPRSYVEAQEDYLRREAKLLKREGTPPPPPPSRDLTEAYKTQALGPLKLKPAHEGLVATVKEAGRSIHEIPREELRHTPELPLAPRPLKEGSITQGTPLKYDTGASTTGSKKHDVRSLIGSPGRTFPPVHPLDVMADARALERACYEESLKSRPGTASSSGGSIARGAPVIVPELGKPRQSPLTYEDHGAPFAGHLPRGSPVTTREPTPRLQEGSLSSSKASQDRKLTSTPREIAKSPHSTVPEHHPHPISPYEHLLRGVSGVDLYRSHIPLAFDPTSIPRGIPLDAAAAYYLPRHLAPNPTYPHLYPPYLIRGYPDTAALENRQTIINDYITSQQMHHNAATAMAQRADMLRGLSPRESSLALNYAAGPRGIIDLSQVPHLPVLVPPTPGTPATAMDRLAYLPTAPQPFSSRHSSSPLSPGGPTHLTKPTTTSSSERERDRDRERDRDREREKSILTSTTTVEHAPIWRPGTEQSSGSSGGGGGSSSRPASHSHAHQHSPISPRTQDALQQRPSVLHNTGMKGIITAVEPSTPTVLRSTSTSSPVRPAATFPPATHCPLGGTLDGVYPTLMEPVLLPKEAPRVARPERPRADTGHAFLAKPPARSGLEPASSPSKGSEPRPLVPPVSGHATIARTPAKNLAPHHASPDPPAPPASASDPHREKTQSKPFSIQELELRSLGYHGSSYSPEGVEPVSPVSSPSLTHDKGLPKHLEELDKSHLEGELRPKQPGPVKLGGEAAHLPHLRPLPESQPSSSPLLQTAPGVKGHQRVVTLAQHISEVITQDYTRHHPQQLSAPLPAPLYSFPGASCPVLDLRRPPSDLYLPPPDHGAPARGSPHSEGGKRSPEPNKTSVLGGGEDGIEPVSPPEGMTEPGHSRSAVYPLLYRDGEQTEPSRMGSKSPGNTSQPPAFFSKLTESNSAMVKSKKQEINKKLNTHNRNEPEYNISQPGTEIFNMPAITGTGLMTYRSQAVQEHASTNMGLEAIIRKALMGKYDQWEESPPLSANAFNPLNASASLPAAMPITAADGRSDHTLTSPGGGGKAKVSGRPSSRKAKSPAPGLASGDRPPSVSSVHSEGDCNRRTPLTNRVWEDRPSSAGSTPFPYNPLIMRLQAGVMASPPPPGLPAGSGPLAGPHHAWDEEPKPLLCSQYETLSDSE
HDAC1, sequence (Q13547 whole entry): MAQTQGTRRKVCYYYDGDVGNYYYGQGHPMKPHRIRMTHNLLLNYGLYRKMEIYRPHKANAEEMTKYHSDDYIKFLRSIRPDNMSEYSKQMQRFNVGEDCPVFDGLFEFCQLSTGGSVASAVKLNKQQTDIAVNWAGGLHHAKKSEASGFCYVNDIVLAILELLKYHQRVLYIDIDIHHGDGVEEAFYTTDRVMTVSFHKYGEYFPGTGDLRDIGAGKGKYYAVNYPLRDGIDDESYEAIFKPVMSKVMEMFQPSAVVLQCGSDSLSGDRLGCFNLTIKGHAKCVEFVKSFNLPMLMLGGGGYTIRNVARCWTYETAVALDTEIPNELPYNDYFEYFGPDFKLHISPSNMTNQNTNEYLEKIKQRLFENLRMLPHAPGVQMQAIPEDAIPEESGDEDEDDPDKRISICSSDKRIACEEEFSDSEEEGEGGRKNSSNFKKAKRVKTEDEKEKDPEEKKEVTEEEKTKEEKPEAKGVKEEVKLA

SMILES: CCC(CCCC(=O)Nc1ccccc1)CCC(=O)NO (racemic) [Compound 1b, 4-ethyl-N^1-hydroxy-N^8-phenyloctanediamide]
- IC50 [1]: 130 ± 3 nM
- activity at 0.1 µM [1, 6]: 55 ± 2%
- activity at 0.2 µM [1, 6]: 39 ± 1%
- activity at […] [1, 6]: 83 ± 2%
- activity at 0.4 µM ([1]; 4.0 × 10^−7 M, read-out: Deacetylase activity (%) HDAC8): 25 ± 1%
- activity at 0.05 µM [1, 6]: 73 ± 2%
- HDAC8 fold selectivity HDAC1 [1]: 34 fold
- HDAC8 fold selectivity HDAC2 [1]: 38 fold
- HDAC8 fold selectivity HDAC3 [1]: 46 fold
- IC50 ([2]; IC50 values (nM) HDAC1): 4400 nM
- IC50 [2, 7]: 4400 to 6000 nM
- activity at 1 µM [2, 8]: 81 ± 3%
- activity at 2 µM [2, 8]: 68 ± 5%
- activity at 4 µM [2, 8]: 58 ± 1%
- activity at 8 µM [2, 8]: 32 ± 4%
- activity at 16 µM [2, 8]: 19 ± 1%
- IC50 [3]: 4.9 µM
- activity at 1 µM [3, 9]: 86 ± 2%
- activity at 2 µM [3, 9]: 69 ± 1%
- activity at 4 µM [3, 9]: 59 ± 2%
- activity at 8 µM [3, 9]: 34 ± 7%
- activity at 16 µM [3, 9]: 23 ± 2%
- IC50 [4]: 6 µM
- activity at 1 µM [4, 10]: 83 ± 7%
- activity at 2 µM [4, 10]: 71 ± 4%
- activity at 4 µM [4, 10]: 64 ± 2%
- activity at 8 µM [4, 10]: 52 ± 6%
- activity at 16 µM [4, 10]: 17 ± 8%
- IC50 [5]: 0.16 ± 0.01 µM
- HDAC6 fold selectivity HDAC1 [5]: 28 fold
- HDAC6 fold selectivity HDAC2 [5]: 31 fold
- HDAC6 fold selectivity HDAC3 [5]: 38 fold
- activity at 0.05 µM [5, 11]: 74 ± 7%
- activity at 0.1 µM [5, 11]: 61 ± 6%
- activity at 0.2 µM [5, 11]: 43 ± 5%
- activity at 0.4 µM [5, 11]: 33 ± 3%
- activity at […] [5, 11]: 80 ± 8%

SMILES: CCCCCCC(CCCC(=O)Nc1ccccc1)CCC(=O)NO (racemic) [Compound 1d, 4-hexyl-N^1-hydroxy-N^8-phenyloctanediamide]
- IC50 [1]: 79 ± 3 nM
- activity at 0.1 µM [1, 6]: 42 ± 4%
- activity at 0.0125 µM [1, 6]: 92 ± 1%
- activity at 0.2 µM [1, 6]: 27 ± 2%
- activity at […] [1, 6]: 78 ± 6%
- activity at 0.05 µM [1, 6]: 63 ± 4%
- HDAC8 fold selectivity HDAC1 [1]: 440 fold
- HDAC8 fold selectivity HDAC2 [1]: 480 fold
- HDAC8 fold selectivity HDAC3 [1]: 380 fold
- fold selectivity for HDAC8 over HDAC1, 2, and 3 [1]: ≥ 380 fold
- IC50 ([2]; IC50 values (nM) HDAC1): 35000 nM
- IC50 [2, 7]: 30000 to 38000 nM
- activity at 1.25 µM [2, 8]: 97 ± 3%
- activity at 10 µM [2, 8]: 83 ± 4%
- activity at 20 µM [2, 8]: 67 ± 4%
- activity at 40 µM [2, 8]: 46 ± 1%
- activity at 80 µM [2, 8]: 26 ± 2%
- activity at 160 µM [2, 8]: 13 ± 1%
- IC50 [3]: 38 µM
- activity at 1.25 µM [3, 9]: 101 ± 2%
- activity at 10 µM [3, 9]: 79 ± 6%
- activity at 20 µM [3, 9]: 73 ± 2%
- activity at 40 µM [3, 9]: 46 ± 6%
- activity at 80 µM [3, 9]: 31 ± 2%
- activity at 160 µM [3, 9]: 16 ± 1%
- IC50 [4]: 30 µM
- activity at 1.25 µM [4, 10]: 100 ± 6%
- activity at 10 µM [4, 10]: 88 ± 2%
- activity at 20 µM [4, 10]: 56 ± 4%
- activity at 40 µM [4, 10]: 42 ± 5%
- activity at 80 µM [4, 10]: 25 ± 1%
- activity at 160 µM [4, 10]: 5 ± 3%
- IC50 [5]: 0.14 ± 0.01 µM
- HDAC6 fold selectivity HDAC1 [5]: 250 fold
- HDAC6 fold selectivity HDAC2 [5]: 270 fold
- HDAC6 fold selectivity HDAC3 [5]: 210 fold
- activity at 0.05 µM [5, 11]: 75 ± 6%
- activity at 0.1 µM [5, 11]: 56 ± 4%
- activity at 0.2 µM [5, 11]: 42 ± 4%
- activity at 0.4 µM [5, 11]: 27 ± 2%
- activity at 1.25 µM [5, 11]: 21 ± 2%
- activity at […] [5, 11]: 77 ± 9%

SMILES: O=C(CCC(CCCC(=O)Nc1ccccc1)Cc1ccccc1)NO (racemic) [Compound 1f, 4-benzyl-N^1-hydroxy-N^8-phenyloctanediamide]
- IC50 [1]: 57 nM
- activity at 0.1 µM [1, 6]: 34 ± 2%
- activity at 0.0125 µM [1, 6]: 87 ± 4%
- activity at 0.2 µM [1, 6]: 21 ± 1%
- activity at […] [1, 6]: 73 ± 2%
- activity at 0.05 µM [1, 6]: 51 ± 1%
- HDAC8 fold selectivity HDAC1 [1]: 510 fold
- HDAC8 fold selectivity HDAC2 [1]: 670 fold
- HDAC8 fold selectivity HDAC3 [1]: 740 fold
- fold selectivity for HDAC8 over HDAC1, 2, and 3 [1]: ≥ 510 fold
- IC50 ([2]; potency (IC50) with HDAC1, text, Table 4 value in μM): 29000 nM
- activity at 5 µM [2, 8]: 87 ± 4%
- activity at 10 µM [2, 8]: 75 ± 5%
- activity at 20 µM [2, 8]: 58 ± 5%
- activity at 40 µM [2, 8]: 44 ± 2%
- activity at 80 µM [2, 8]: 27 ± 2%
- activity at 160 µM [2, 8]: 16 ± 1%
- IC50 [3]: 32 µM
- activity at 5 µM [3, 9]: 92 ± 4%
- activity at 10 µM [3, 9]: 74 ± 4%
- activity at 20 µM [3, 9]: 60 ± 1%
- activity at 40 µM [3, 9]: 47 ± 1%
- activity at 80 µM [3, 9]: 27 ± 5%
- activity at 160 µM [3, 9]: 20 ± 1%
- IC50 [4]: 42 µM
- activity at 5 µM [4, 10]: 90 ± 3%
- activity at 10 µM [4, 10]: 87 ± 4%
- activity at 20 µM [4, 10]: 63 ± 5%
- activity at 40 µM [4, 10]: 55 ± 3%
- activity at 80 µM [4, 10]: 33 ± 2%
- activity at 160 µM [4, 10]: 19 ± 2%
- IC50 [5]: 0.14 µM
- HDAC6 fold selectivity HDAC1 [5]: 210 fold
- HDAC6 fold selectivity HDAC2 [5]: 270 fold
- HDAC6 fold selectivity HDAC3 [5]: 300 fold
- activity at 0.05 µM [5, 11]: 76 ± 5%
- activity at 0.1 µM [5, 11]: 60 ± 4%
- activity at 0.2 µM [5, 11]: 45 ± 5%
- activity at 0.4 µM [5, 11]: 18 ± 4%
- activity at 5 µM [5, 11]: 2.9 ± 0.5%
- activity at […] [5, 11]: 90 ± 7%
